# Source: patent publication US20130217092A1, “Enhancing Reactivation of Thermostable Reversibly Inactivated Enzymes” (Qiagen GmbH, priority 2006, published 2013)
# Tests used:
# Format in all cases: biochemical
# [1] = biological target: chemically modified enzyme (Thermus aquaticus, UniProt P19821); experiment: Additionally tested compounds, enhancement of enzyme activity of a chemically modified enzyme; details: conditions not stated
# [2] = biological target: T1, HotStarTaq DNA Polymerase (Thermus aquaticus, UniProt P19821); experiment: Fast PCR with ammonium chloride, agarose gel, Example 4; details: 10, 20 and 30 mM ammonium chloride vs 0 mM; PCR assays A, B, C; FIG. 3
# T1 construct: purchased QIAGEN
# T1 sequence (P19821 whole entry): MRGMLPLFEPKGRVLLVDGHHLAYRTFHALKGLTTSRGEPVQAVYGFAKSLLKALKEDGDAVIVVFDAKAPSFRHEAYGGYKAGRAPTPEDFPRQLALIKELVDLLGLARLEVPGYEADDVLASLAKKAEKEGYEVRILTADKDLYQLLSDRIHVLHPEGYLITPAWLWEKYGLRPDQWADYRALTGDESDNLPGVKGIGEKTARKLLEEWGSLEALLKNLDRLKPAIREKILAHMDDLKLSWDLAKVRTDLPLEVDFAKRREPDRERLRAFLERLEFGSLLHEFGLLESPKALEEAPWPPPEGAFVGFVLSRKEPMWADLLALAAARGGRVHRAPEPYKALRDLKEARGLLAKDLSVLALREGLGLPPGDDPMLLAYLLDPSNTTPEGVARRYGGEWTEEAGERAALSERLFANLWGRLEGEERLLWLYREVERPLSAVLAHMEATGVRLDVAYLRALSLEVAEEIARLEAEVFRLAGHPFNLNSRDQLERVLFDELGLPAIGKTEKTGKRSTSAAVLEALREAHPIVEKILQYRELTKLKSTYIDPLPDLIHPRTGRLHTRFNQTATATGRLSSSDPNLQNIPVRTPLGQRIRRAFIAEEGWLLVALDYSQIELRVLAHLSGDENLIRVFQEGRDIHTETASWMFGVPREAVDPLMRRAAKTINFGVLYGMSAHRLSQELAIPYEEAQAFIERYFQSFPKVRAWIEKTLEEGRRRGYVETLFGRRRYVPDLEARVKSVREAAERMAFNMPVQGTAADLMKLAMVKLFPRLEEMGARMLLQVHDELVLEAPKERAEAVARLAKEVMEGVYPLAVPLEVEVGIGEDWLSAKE
# Protocol: Each PCR reaction contained 1.5 units HotStarTaq DNA Polymerase, 10 ng template human or mouse genomic DNA, 200 μM of each dNTP, 0.5 μM of each primer for each different PCR assay (Assay A, primer A1: 5′-GCTTGAGCAACCTGGCTAAGATAGAGG-3′ (SEQ ID NO:7), primer A2: 5′-GAGTTAGCAGGAGGCTGGATGCAGATG-3′ (SEQ ID NO:8); Assay B, primer B1: 5′-CCACAATGGACATCACACAAGTGAG-3′ (SEQ ID NO:9), primer B2: 5′-GATCTTTCTGCCCAGATACCATTCG-3′ (SEQ ID NO:10); Assay C, primer C1: 5′-CCTTGCCTTAGATGTGTCGGCA-3′ (SEQ ID NO:11), primer C2: 5′-CCCAAACCCAACCCATACACAC-3′ (SEQ ID NO:12)) and PCR grade water. PCR reactions were started with an initial enzyme activation step at 95° C. for 5 minutes followed by 35 cycles: 96° C. for 5 seconds, 60° C. for 5 seconds and 68° C. for 30 seconds/kb PCR product size. PCR products were analysed on a 1% TAE agarose gel. M: DNA size ladder (FIG. 3).
# [3] = biological target: T1, HotStarTaq DNA Polymerase; experiment: Fast PCR with 20 mM ammonium chloride and Triazole, agarose gel, Example 5
# Protocol: System C shown in Example 4 was chosen as model system. Each PCR reaction contained 1.5 units HotStarTaq DNA Polymerase, 10 ng template human genomic DNA, 200 μM of each dNTP, 0.5 μM of each primer A: 5′-CCTTGCCTTAGATGTGTCGGCA-3′ (SEQ ID NO:11), primer B: 5′-CCCAAACCCAACCCATACACAC -3′ (SEQ ID NO:12), and PCR grade water. PCR reactions were started with an initial enzyme activation step at 95° C. for 5 minutes followed by 35 cycles: 96° C. for 5 seconds, 60° C. for 5 seconds and 68° C. for 45 seconds. PCR products from duplicate reactions were analysed on a 1% TAE agarose gel. M: DNA size ladder.
# [4] = biological target: T2, unmodified Taq DNA Polymerase (QIAGEN) (Thermus aquaticus, UniProt P19821); experiment: SYBR Green I real-time PCR, Example 1 (control enzyme)
# T2 construct: purchased QIAGEN
# T2 sequence (P19821 whole entry): as the sequence (P19821 whole entry) above
# Excerpt: (§1) In real-time PCR, the enzymatic reaction is continuously monitored by measuring fluorescence signals throughout the reaction. Double-stranded DNA molecules are generated during the PCR reaction. These PCR products are detected by using SYBR Green I fluorescent dye that binds selectively to dsDNA only. Thus, an increase of fluorescence indicates an increase in PCR product amount and thus activity of the DNA polymerase contained in the reaction. […] Thus, the CT value is a measurement for the enzyme activity contained in the reaction: Low CT values indicate high enzyme activity and high CT values represent lower enzyme activity residing in the reaction.
# A SYBR Green I based PCR reaction was conducted in the presence of unmodified Taq DNA Polymerase (QIAGEN) serving as a control reaction, using HotStarTaq DNA polymerase (QIAGEN) or AmpliTaq Gold (Applied Biosystems). Each reaction contained 0.625 units of the respective DNA polymerase, 1× PCR reaction buffer of the respective DNA polymerase, 200 μM of each dNTP, 0.5 μM primer A: 5′-[…]-3′ (SEQ ID NO:1), 0.5 μM primer B: 5′-[…]-3′ (SEQ ID NO:2), PCR grade water and in case of testing nitrogen-containing compounds as example 100 mM Triazole, final concentration. […] Average CT values were determined from triplicate reactions comparing reactions without the addition of Triazole and with 100 mM Triazole.
# [5] = biological target: T1, HotStarTaq DNA Polymerase; experiment: Fast PCR with shortened cycling times, agarose gel, Example 2; details: 100, 200, 300, 400 and 500 mM Triazole vs absence of Triazole; FIG. 1
# Protocol: Each PCR reaction contained 1.5 units HotStarTaq DNA Polymerase, 10 ng template human genomic DNA, 200 μM of each dNTP, 0.5 μM primer A: 5′-CACACAGCGATGGCAGCTATGC-3′ (SEQ ID NO:3), 0.5 […] primer B: 5′-CCC AGT GAT GGG CCA GCT C-3′ (SEQ ID NO:4), PCR grade water and in case of testing nitrogen-containing compounds as example 100 mM, 200 mM, 300 mM, 400 mM and 500 mM Triazole, final concentration. PCR reactions were started with an initial enzyme activation step at 95° C. for 5 minutes followed by 35 cycles: 96° C. for 5 seconds, 60° C. for 5 seconds and 68° C. for 30 seconds. PCR products were analysed on a 1% TAE agarose gel (FIG. 1).
# [6] = biological target: T3, HotStarTaq DNA polymerase (QIAGEN) (Thermus aquaticus, UniProt P19821); experiment: SYBR Green I real-time PCR, Example 1, reactivation of chemically modified enzyme
# T3 construct: purchased QIAGEN
# T3 sequence (P19821 whole entry): as the sequence (P19821 whole entry) above
# Excerpt: (§2) As model system to exemplify the invention, hot start PCR was chosen with two commercially available enzymes. […] AmpliTaq Gold (Applied Biosystems) is chemically inactivated using dicarboxylic acid anhydride whereas HotStarTaq (QIAGEN) is chemically inactivated using formaldehyde.
# as §1
# (§3) A SYBR Green I based PCR reaction was conducted in the presence of unmodified Taq DNA Polymerase (QIAGEN) serving as a control reaction, using HotStarTaq DNA polymerase (QIAGEN) or AmpliTaq Gold (Applied Biosystems). Each reaction contained 0.625 units of the respective DNA polymerase, 1× PCR reaction buffer of the respective DNA polymerase, 200 μM of each dNTP, 0.5 μM primer A: 5′-[…]-3′ (SEQ ID NO:1), 0.5 μM primer B: 5′-[…]-3′ (SEQ ID NO:2), PCR grade water and in case of testing nitrogen-containing compounds as example 100 mM Triazole, final concentration. Each reaction contained 10 ng human genomic DNA as amplification substrate. PCR reactions were started with an initial enzyme activation step at 95° C. for 5 minutes followed by 50 cycles: 94° C. for 15 seconds and 60° C. for 60 seconds. Average CT values were determined from triplicate reactions comparing reactions without the addition of Triazole and with 100 mM Triazole.
# [7] = biological target: T4, AmpliTaq Gold (Applied Biosystems) (Thermus aquaticus, UniProt P19821); experiment: as above
# T4 construct: purchased Applied Biosystems
# T4 sequence (P19821 whole entry): as the sequence (P19821 whole entry) above
# Excerpt: as §2, §1, §3
# Sequence of chemically modified enzyme (P19821 whole entry): as the sequence (P19821 whole entry) above
compound,measurement,setting,value
N.N.O=P(O)(O)O [di-ammonium hydrogen phosphate],improvement of enzyme activity,[1],no improvement
Cl.N [ammonium chloride],overall enzyme activity of the chemically inactivated enzyme,[2],increase of overall enzyme activity
ammonium citrate,improvement of enzyme activity,[1],no improvement
N.N.O=S(=O)(O)O [ammonium sulfate],improvement of enzyme activity,[1],no improvement
Triazole,enzyme activity of the chemically modified enzyme,[3]; 500 mM Triazole in the presence of 20 mM ammonium chloride,still higher than in the reaction without Triazole
same,enzyme activity of the chemically modified enzyme,"[3]; Triazole 100-500 mM in the presence of 20 mM ammonium chloride vs no Triazole, FIG. 4",clear benefit for the enzyme activity
same,effect on the enzyme activity,"[4]; 100 mM Triazole, unmodified Taq DNA polymerase",no effect
same,Average CT value with 100 mM Triazole,"[4]; Taq (unmodified), activation 95° C. for 5 minutes, triplicate reactions, low CT = high enzyme activity",21.3
same,enzyme activity / generation of the desired PCR product under fast cycling,[5],significantly improves enzyme activity
same,effect on the enzyme activity,"[6]; 100 mM Triazole, HotStarTaq DNA Polymerase",clearly higher enzyme activity
same,Average CT value with 100 mM Triazole,"[6]; HotStarTaq, activation 95° C. for 5 minutes, triplicate reactions, low CT = high enzyme activity",35.9
same,effect on the enzyme activity,[7]; 100 mM Triazole,clearly higher enzyme activity
same,Average CT value with 100 mM Triazole,"[7]; activation 95° C. for 5 minutes, triplicate reactions, low CT = high enzyme activity",25.6
N.O=C(O)c1ccccc1 [ammonium benzoate],improvement of enzyme activity,[1],no improvement
N.N.O=C(O)O [ammonium carbonate],improvement of enzyme activity,[1],no improvement
